Assay: mn = molality of the nth substance listed, in mol/kg
Settings: 75 kPa, Liquid, Buoyancy - hydrostatic balance with magnetic suspension - one sinker

CCC(N)C(=O)O (stereo not drawn) [(.+-.)-α-aminobutyric acid] + O
Settings | mass density [kg/m3]
275.63 K, m1 = 0.03017 | 1000.84
275.63 K, m1 = 0.03851 | 1001.09
275.63 K, m1 = 0.04794 | 1001.36
275.63 K, m1 = 0.06041 | 1001.72
275.63 K, m1 = 0.072 | 1002.07
275.63 K, m1 = 0.07612 | 1002.18
275.63 K, m1 = 0.08971 | 1002.58
275.63 K, m1 = 0.0967 | 1002.78
276.13 K, m1 = 0.03035 | 1000.85
276.13 K, m1 = 0.03896 | 1001.1
276.13 K, m1 = 0.04967 | 1001.42
276.13 K, m1 = 0.05823 | 1001.67
276.13 K, m1 = 0.07075 | 1002.03
276.13 K, m1 = 0.08046 | 1002.31
276.13 K, m1 = 0.0901 | 1002.6
276.13 K, m1 = 0.0968 | 1002.78
276.69 K, m1 = 0.0256 | 1000.72
276.69 K, m1 = 0.03484 | 1000.99
276.69 K, m1 = 0.04383 | 1001.25
276.69 K, m1 = 0.05138 | 1001.47
276.69 K, m1 = 0.06131 | 1001.77
276.69 K, m1 = 0.06872 | 1001.99
276.69 K, m1 = 0.0783 | 1002.24
276.69 K, m1 = 0.08694 | 1002.51
277.12 K, m1 = 0.03035 | 1000.86
277.12 K, m1 = 0.03896 | 1001.12
277.12 K, m1 = 0.04967 | 1001.42
277.12 K, m1 = 0.05823 | 1001.68
277.12 K, m1 = 0.07075 | 1002.04
277.12 K, m1 = 0.08046 | 1002.31
277.12 K, m1 = 0.0901 | 1002.6
277.12 K, m1 = 0.0968 | 1002.79
277.67 K, m1 = 0.0256 | 1000.71
277.67 K, m1 = 0.03484 | 1000.99
277.67 K, m1 = 0.04383 | 1001.25
277.67 K, m1 = 0.05138 | 1001.47
277.67 K, m1 = 0.06131 | 1001.76
277.67 K, m1 = 0.06872 | 1001.99
277.67 K, m1 = 0.0783 | 1002.25
277.67 K, m1 = 0.08694 | 1002.51
278.12 K, m1 = 0.03122 | 1000.86
278.12 K, m1 = 0.04081 | 1001.16
278.12 K, m1 = 0.04913 | 1001.38
278.12 K, m1 = 0.05983 | 1001.72
278.12 K, m1 = 0.07098 | 1002.05
278.12 K, m1 = 0.08031 | 1002.3
278.12 K, m1 = 0.09051 | 1002.6
278.12 K, m1 = 0.09974 | 1002.85
278.65 K, m1 = 0.0312 | 1000.86
278.65 K, m1 = 0.04081 | 1001.12
278.65 K, m1 = 0.04913 | 1001.35
278.65 K, m1 = 0.05983 | 1001.67
278.65 K, m1 = 0.07098 | 1002
278.65 K, m1 = 0.08031 | 1002.27
278.65 K, m1 = 0.09051 | 1002.57
278.65 K, m1 = 0.0997 | 1002.85

CC(N)C(=O)O (stereo not drawn) [DL-2-aminopropanoic acid] + O
Settings | mass density [kg/m3]
275.63 K, m1 = 0.0294 | 1000.85
275.63 K, m1 = 0.04005 | 1001.17
275.63 K, m1 = 0.04974 | 1001.47
275.63 K, m1 = 0.0592 | 1001.76
275.63 K, m1 = 0.0695 | 1002.07
275.63 K, m1 = 0.08475 | 1002.53
275.63 K, m1 = 0.0911 | 1002.72
275.63 K, m1 = 0.1019 | 1003.05
276.13 K, m1 = 0.03044 | 1000.88
276.13 K, m1 = 0.04034 | 1001.19
276.13 K, m1 = 0.04918 | 1001.46
276.13 K, m1 = 0.05989 | 1001.78
276.13 K, m1 = 0.07063 | 1002.11
276.13 K, m1 = 0.07952 | 1002.37
276.13 K, m1 = 0.09022 | 1002.69
276.13 K, m1 = 0.09952 | 1002.98
276.69 K, m1 = 0.03006 | 1000.88
276.69 K, m1 = 0.04009 | 1001.19
276.69 K, m1 = 0.04963 | 1001.48
276.69 K, m1 = 0.0606 | 1001.81
276.69 K, m1 = 0.0711 | 1002.13
276.69 K, m1 = 0.07938 | 1002.37
276.69 K, m1 = 0.08509 | 1002.54
276.69 K, m1 = 0.09839 | 1002.95
277.12 K, m1 = 0.03044 | 1000.89
277.12 K, m1 = 0.04034 | 1001.19
277.12 K, m1 = 0.0492 | 1001.46
277.12 K, m1 = 0.05989 | 1001.78
277.12 K, m1 = 0.07063 | 1002.1
277.12 K, m1 = 0.07952 | 1002.37
277.12 K, m1 = 0.09022 | 1002.7
277.12 K, m1 = 0.09952 | 1002.97
277.67 K, m1 = 0.02944 | 1000.85
277.67 K, m1 = 0.04005 | 1001.17
277.67 K, m1 = 0.04974 | 1001.46
277.67 K, m1 = 0.0592 | 1001.74
277.67 K, m1 = 0.0695 | 1002.06
277.67 K, m1 = 0.08475 | 1002.51
277.67 K, m1 = 0.0911 | 1002.7
277.67 K, m1 = 0.1019 | 1003.04
278.12 K, m1 = 0.03078 | 1000.9
278.12 K, m1 = 0.03875 | 1001.11
278.12 K, m1 = 0.04963 | 1001.45
278.12 K, m1 = 0.05968 | 1001.76
278.12 K, m1 = 0.0709 | 1002.09
278.12 K, m1 = 0.07928 | 1002.34
278.12 K, m1 = 0.09099 | 1002.69
278.12 K, m1 = 0.1006 | 1002.98
278.65 K, m1 = 0.03078 | 1000.89
278.65 K, m1 = 0.03875 | 1001.13
278.65 K, m1 = 0.04963 | 1001.45
278.65 K, m1 = 0.05968 | 1001.75
278.65 K, m1 = 0.0709 | 1002.09
278.65 K, m1 = 0.07928 | 1002.34
278.65 K, m1 = 0.09099 | 1002.68
278.65 K, m1 = 0.1006 | 1002.96

From the NIST ThermoML archive (doi:10.1016/j.jct.2015.04.024)
